Measured values published in US20100305113A1, “Substituted Imidazopyridazines as Lipid Kinase Inhibitors” (priority 2007, published 2010).
pIC50: −log10 of the molar value.

Assays:
PI3K alfa = target: T1, PI3K alfa (Homo sapiens, UniProt P42336); experiment: PI3K alfa enzymatic assay (Kinase-Glo luminescence); format: biochemical; conditions: Enzymatic Data
T1 construct: p85(iSH2) fusion partner (same polypeptide; see partner chain) (N); 12x Gly linker (N); His tag (C); made in house; host or cells: baculovirus; Tn5 (Trichoplusia ni) or TiniPro insect cells
How it was run: (§1)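 Kinase-Glo ATP-depletion luminescence with 1 μM ATP and 10 μg/mL phosphatidylinositol in pH 7.5 Tris buffer; 10 nM PI3Kα incubated 60 min, 150 nM PI3Kγ 120 min, at room temperature. IC50 by 4-parameter logistic fit over 8 concentrations.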

PI3K beta = target: T2, PI3K beta (Homo sapiens, UniProt P42338); experiment: PI3K beta enzymatic assay (Kinase-Glo luminescence); format: biochemical; conditions: Enzymatic Data
T2 construct: for the full-length p110-b subunit are generated and fused by overlapping PCR; p85(iSH2) fusion partner (same polypeptide; see partner chain) (N); Gly linker (N); His tag (C); made in house; host or cells: baculovirus; Tn5 (Trichoplusia ni) or TiniPro insect cells
How it was run: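 Full-length p110β with p85 iSH2 (His-tagged) at 25 nM, 10 μg/mL phosphatidylinositol and 1 μM ATP, in pH 7.5 Tris with 3 mM MgCl2, 60 min at room temperature. Remaining ATP read by Kinase-Glo luminescence; IC50 from 4-parameter logistic fit over 8 concentrations.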

PI3K delta = target: T3, PI3K delta (Homo sapiens, UniProt O00329); experiment: PI3K delta enzymatic assay (Kinase-Glo luminescence); format: biochemical; conditions: Enzymatic Data
T3 construct: for the full-length p110-d subunit are generated and fused by overlapping PCR; p85(iSH2) fusion partner (same polypeptide; see partner chain) (N); Gly linker (N); His tag (C); made in house; host or cells: baculovirus; Tn5 (Trichoplusia ni) or TiniPro insect cells
How it was run: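 10 nM PI3Kδ p85(iSH2)-Gly linker-full-length p110δ His-tagged construct with 10 µg/mL phosphatidylinositol and 1 µM ATP. Buffer: 10 mM Tris pH 7.5, 3 mM MgCl2, 50 mM NaCl, 0.05% CHAPS, 1 mM DTT; 60 min RT. Kinase-Glo luminescence; IC50 from 4-parameter logistic fit over 8 concentrations.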

PI3K gamma = target: T4, PI3K gamma (Homo sapiens, UniProt P48736); experiment: PI3K gamma enzymatic assay (Kinase-Glo luminescence); format: biochemical; conditions: Enzymatic Data
T4 construct: His tag (C); made in house; host or cells: construct from Roger Williams lab (MRC LMB); baculovirus (pVL1393); Tn5 (Trichoplusia ni) or TiniPro insect cells
How it was run: as §1

T4 sequence (P48736 144-1102 limits assumed): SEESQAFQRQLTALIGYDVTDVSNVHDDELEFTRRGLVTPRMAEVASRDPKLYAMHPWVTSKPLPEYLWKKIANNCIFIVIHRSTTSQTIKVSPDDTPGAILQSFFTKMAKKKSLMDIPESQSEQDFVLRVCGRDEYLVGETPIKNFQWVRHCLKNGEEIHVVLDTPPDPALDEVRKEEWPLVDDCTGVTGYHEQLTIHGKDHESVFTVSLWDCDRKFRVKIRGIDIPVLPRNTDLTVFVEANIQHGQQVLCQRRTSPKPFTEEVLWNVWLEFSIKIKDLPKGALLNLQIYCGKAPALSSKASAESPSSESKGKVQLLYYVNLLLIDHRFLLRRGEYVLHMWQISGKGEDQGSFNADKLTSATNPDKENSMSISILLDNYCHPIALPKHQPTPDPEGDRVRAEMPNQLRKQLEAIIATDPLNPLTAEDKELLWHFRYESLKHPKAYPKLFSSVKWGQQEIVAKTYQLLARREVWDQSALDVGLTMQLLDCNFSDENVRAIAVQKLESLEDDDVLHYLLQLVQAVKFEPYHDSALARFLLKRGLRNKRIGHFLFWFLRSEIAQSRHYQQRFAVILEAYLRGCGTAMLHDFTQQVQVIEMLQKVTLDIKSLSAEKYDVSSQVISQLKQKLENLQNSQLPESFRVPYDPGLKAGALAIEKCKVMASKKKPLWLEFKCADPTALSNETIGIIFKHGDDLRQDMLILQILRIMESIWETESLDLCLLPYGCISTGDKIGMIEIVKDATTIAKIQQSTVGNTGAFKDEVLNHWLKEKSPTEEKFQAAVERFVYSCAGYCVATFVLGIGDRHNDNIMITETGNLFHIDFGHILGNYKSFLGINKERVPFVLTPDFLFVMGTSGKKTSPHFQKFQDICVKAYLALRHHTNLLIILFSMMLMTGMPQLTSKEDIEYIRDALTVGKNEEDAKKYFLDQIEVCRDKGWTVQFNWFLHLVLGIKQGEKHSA
T1 sequence (P42336 with tags, fused parts or gaps limits assumed): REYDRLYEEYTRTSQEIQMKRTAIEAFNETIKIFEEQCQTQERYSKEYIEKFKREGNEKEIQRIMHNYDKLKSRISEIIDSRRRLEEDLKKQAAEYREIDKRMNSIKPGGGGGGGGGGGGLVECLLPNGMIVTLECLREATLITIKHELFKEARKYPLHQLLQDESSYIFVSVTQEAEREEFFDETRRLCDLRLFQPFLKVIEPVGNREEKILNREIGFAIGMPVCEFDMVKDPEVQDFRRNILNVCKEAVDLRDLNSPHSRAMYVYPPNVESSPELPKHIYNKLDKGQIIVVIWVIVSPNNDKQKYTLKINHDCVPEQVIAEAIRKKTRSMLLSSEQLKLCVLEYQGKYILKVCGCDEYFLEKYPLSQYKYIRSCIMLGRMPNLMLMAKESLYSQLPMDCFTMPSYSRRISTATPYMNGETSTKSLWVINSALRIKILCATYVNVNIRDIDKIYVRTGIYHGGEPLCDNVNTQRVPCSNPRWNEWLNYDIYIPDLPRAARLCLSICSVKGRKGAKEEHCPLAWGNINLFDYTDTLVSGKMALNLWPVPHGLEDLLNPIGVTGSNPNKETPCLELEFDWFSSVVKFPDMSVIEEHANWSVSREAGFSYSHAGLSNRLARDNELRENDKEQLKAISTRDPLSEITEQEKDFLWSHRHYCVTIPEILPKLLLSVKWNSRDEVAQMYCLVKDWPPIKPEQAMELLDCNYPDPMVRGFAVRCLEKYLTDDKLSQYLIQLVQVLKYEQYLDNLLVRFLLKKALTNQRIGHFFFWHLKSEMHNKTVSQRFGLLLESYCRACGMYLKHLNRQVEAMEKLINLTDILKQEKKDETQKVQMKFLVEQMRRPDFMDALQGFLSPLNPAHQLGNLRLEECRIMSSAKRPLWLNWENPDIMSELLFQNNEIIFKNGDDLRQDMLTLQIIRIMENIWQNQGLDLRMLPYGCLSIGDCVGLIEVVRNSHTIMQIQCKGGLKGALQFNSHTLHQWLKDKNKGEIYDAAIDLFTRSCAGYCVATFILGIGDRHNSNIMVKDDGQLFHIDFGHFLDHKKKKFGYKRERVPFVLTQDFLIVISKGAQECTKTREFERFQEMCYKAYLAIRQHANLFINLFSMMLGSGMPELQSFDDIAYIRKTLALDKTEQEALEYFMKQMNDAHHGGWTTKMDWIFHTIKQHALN
T3 sequence (O00329 with tags, fused parts or gaps limits assumed): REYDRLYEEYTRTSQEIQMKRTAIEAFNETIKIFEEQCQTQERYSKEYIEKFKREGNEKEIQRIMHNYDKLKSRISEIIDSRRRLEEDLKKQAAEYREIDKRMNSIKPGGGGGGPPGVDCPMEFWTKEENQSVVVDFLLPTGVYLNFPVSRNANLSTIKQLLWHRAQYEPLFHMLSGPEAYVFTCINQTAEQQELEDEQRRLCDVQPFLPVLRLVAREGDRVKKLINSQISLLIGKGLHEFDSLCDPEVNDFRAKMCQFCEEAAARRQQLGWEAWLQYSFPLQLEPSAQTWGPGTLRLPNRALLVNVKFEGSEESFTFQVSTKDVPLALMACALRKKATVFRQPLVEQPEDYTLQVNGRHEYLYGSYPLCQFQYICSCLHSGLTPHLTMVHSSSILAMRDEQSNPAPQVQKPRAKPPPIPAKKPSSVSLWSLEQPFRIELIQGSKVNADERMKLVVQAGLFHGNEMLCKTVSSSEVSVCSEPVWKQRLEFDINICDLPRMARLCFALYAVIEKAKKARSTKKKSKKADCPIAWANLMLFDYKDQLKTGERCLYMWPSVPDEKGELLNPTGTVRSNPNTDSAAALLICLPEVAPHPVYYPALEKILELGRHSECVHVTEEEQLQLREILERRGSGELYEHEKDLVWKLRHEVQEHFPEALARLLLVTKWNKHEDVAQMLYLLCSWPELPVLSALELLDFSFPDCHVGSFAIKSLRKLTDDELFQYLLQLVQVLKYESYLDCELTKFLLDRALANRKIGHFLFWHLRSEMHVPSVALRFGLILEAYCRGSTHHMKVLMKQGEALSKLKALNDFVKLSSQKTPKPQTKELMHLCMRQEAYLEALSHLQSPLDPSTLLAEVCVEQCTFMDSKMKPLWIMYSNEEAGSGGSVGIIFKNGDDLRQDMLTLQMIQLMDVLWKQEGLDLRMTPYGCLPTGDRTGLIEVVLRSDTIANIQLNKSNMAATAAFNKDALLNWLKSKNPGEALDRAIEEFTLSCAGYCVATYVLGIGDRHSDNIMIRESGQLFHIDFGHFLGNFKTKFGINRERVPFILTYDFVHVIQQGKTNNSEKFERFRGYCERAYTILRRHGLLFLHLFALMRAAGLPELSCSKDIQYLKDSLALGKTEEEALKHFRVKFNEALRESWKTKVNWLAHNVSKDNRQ
T2 sequence (P42338 with tags, fused parts or gaps limits assumed): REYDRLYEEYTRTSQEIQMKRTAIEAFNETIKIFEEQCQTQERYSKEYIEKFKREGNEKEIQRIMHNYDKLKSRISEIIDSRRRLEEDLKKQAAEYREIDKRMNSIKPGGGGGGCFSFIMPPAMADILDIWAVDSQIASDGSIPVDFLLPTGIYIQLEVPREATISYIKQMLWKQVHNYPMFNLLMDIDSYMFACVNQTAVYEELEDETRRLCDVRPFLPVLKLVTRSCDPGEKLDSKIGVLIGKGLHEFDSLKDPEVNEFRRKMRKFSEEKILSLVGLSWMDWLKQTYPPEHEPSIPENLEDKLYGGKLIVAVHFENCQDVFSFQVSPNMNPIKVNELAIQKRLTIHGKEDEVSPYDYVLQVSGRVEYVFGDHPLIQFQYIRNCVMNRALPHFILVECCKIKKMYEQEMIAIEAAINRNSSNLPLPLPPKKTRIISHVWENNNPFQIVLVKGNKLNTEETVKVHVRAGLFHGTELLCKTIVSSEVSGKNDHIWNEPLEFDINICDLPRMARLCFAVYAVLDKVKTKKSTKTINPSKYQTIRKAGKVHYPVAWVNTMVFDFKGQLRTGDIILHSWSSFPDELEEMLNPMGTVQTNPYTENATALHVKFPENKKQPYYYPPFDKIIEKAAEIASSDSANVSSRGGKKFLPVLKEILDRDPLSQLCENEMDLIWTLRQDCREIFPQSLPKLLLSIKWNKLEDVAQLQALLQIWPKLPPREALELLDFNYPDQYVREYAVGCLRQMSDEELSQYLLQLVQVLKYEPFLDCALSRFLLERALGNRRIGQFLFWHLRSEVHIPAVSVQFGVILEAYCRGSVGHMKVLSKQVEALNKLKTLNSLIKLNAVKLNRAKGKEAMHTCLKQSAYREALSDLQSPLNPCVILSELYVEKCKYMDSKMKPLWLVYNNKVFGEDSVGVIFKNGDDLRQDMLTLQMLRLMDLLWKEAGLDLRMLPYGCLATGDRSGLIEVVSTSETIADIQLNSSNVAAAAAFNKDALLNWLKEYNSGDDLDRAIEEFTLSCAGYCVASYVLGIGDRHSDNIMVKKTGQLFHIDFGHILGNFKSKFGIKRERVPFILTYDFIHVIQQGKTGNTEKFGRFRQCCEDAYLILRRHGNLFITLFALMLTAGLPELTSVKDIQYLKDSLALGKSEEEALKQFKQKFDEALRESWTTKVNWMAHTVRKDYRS

Row | Structure (SMILES) | pIC50 (PI3K alfa) | pIC50 (PI3K beta) | pIC50 (PI3K delta) | pIC50 (PI3K gamma) | melting point [°C]
1 | Cc1nc2ccc(-c3ccc4c(c3)OCO4)nn2c1-c1cnc2[nH]ccc2c1 [Example 109, 6-Benzo[1,3]dioxol-5-yl-2-methyl-3-(1H-pyrrolo[2,3-b]pyridin-5-yl)-imidazo[1,2-b]pyridazine] | 5.23 | < 5.04 | 5.40 | < 5.04 | 
2 | Cc1nc2ccc(-c3ccc(OCC4(NC(=O)C5CC5)COC4)cc3)nn2c1-c1cnc(N)c(C(F)(F)F)c1 [Example 110, Cyclopropanecarboxylic acid (3-{4-[3-(6-amino-5-trifluoromethyl-pyridin-3-yl)-2-methyl-imidazo[1,2-b]pyridazin-6-yl]-phenoxymethyl}-oxetan-3-yl)-amide] | 6.90 | 5.09 | 5.80 | 5.68 | 191 to 193
3 | Cc1nc2ccc(-c3ccc(OCC4(N)COC4)cc3)nn2c1-c1cnc(N)c(C(F)(F)F)c1 [Example 111, 5-{6-[4-(3-Amino-oxetan-3-ylmethoxy)-phenyl]-2-methyl-imidazo[1,2-b]pyridazin-3-yl}-3-trifluoromethyl-pyridin-2-ylamine] | 6.88 | 5.62 | 6.05 | 5.92 | 198 to 200
4 | Cc1nc2ccc(-c3ccc(OCC4(NC(=O)OCc5ccccc5)COC4)cc3)nn2c1-c1cnc(N)c(C(F)(F)F)c1 [Example 112, (3-{4-[3-(6-Amino-5-trifluoromethyl-pyridin-3-yl)-2-methyl-imidazo[1,2-b]pyridazin-6-yl]-phenoxymethyl}-oxetan-3-yl)-carbamic acid benzyl ester] | 6.09 | < 5.04 | 5.74 | < 5.04 | 
5 | Cc1nc2ccc(-c3ccc(OCC4(NC(=O)OC(C)(C)C)COC4)cc3)nn2c1-c1cnc(N)c(C(F)(F)F)c1 [Example 113, (3-{4-[3-(6-Amino-5-trifluoromethyl-pyridin-3-yl)-2-methyl-imidazo[1,2-b]pyridazin-6-yl]-phenoxymethyl}-oxetan-3-yl)-carbamic acid tert-butyl ester] | 6.00 | < 5.04 | 5.29 | < 5.04 | 
6 | Cc1nc2ccc(-c3ccc(OCC4(NC(=O)C(C)C)COC4)cc3)nn2c1-c1cnc(N)c(C(F)(F)F)c1 [Example 114, N-(3-{4-[3-(6-Amino-5-trifluoromethyl-pyridin-3-yl)-2-methyl-innidazo[1,2-b]pyridazin-6-yl]-phenoxymethyl}-oxetan-3-yl)-isobutyramide] | 7.31 | 5.06 | 6.36 | 5.82 | 
7 | COC(=O)NC1(COc2ccc(-c3ccc4nc(C)c(-c5cnc(N)c(C(F)(F)F)c5)n4n3)cc2)COC1 [Example 115, (3-{4-[3-(6-Amino-5-trifluoromethyl-pyridin-3-yl)-2-methyl-imidazo[1,2-b]pyridazin-6-yl]-phenoxymethyl}-oxetan-3-yl)-carbamic acid methyl ester] | 6.53 | < 5.04 | 5.71 | 5.50 | 202 to 204
8 | Cc1nc2ccc(-c3ccc(OCC4(NC(=O)C(F)(F)F)COC4)cc3)nn2c1-c1cnc(N)c(C(F)(F)F)c1 [Example 116, N-(3-{4-[3-(6-Amino-5-trifluoromethyl-pyridin-3-yl)-2-methyl-imidazo[1,2-b]pyridazin-6-yl]-phenoxymethyl}-oxetan-3-yl)-2,2,2-trifluoro-acetamide] | 7.23 | 5.37 | 6.03 | 5.33 | 214 to 216
